Tested on: MV4:11 human cancer cell lines
Test: Cellular viability / anti-proliferative assay, CellTiter-Glo, 5 day protocol
Format: cell-based
Conditions: Homo sapiens, MV4-11, 120 h, MV4:11 cells; 5 day incubation; CellTiter-Glo; mean of at least two replicates; read-out: GI50 on cellular proliferation of MV4:11 human cancer cell lines
Procedure: Cellular Viability of Human Tumor Cell Lines
Anti-proliferative activity using MLL-harboring cell lines. MV-4-11 and K562 cells are grown in IMDM media supplemented with 10% FBS and 1% penicillin/streptomycin, Molm-13 cells are cultured in RPMI-1640 media supplemented with 10% FBS and 1% penicillin/streptomycin. Viability assays are performed by dispensing 200 cells at 7200 cells/mL into each well of an opaque 384-well plate and adding compounds at the indicated concentrations in a final volume, of 32 μL. and a final concentration of DMSO of 0.3% for all samples. A certain range of compound concentrations is made through a series of 2-fold dilutions starting 30 μM at the highest, total 22 dilutions. After a set incubation period, 5 day protocol, the viability of cells in each well is assessed using the CellTiter-Glo assay (Promega), read on a 96 Microplane Luminometer (Cytation 3, BioTek). Serial dilutions of each cell type are performed in all assays to generate standard curves and the final densities of cells are determined within the dynamic range of the instrument. GI50 values are calculated based on XLfit software (IDBS, Guildford, UK) with Sigmoidal Dose-Response Model. Each compound is tested in minimum of two replicates. Data are expressed as mean.

| GI50 [nM] | SMILES |
| --- | --- |
| < 20 | CCc1cc(Br)c2nccc(N3CCc4c(cc(Cn5ccnc5)cc4-c4cn(C)nc4C(F)(F)F)C3=O)c2c1 [Example 34, 7-((1H-imidazol-1-yl)methyl)-2-(8-bromo-6-ethylquinolin-4-yl)-5-(1-methyl-3-(trifluoromethyl)-1H-pyrazol-4-yl)-3,4-dihydroisoquinolin-1(2H)-one] |
| < 20 | COc1cc(C#N)c2nccc(N3CCc4c(cc(Cn5ccnc5)cc4-c4cn(C)nc4C(F)(F)F)C3=O)c2c1 [Example 205] |
| > 10000 | COc1cc(-c2nnn[nH]2)c2nc(C)cc(N3CCc4c(cc(Cn5ccnc5)cc4-c4cn(C)nc4C(F)(F)F)C3=O)c2c1 [Example 196, 7-((1H-Imidazol-1-yl)methyl)-2-(6-methoxy-2-methyl-8-(1H-tetrazol-5-yl)quinolin-4-yl)-5-(1-methyl-3-(trifluoromethyl)-1H-pyrazol-4-yl)-3,4-dihydroisoquinolin-1(2H)-one] |
| 68 | COc1cc(-c2n[nH]c(=O)o2)c2nc(C)cc(N3CCc4c(cc(Cn5ccnc5)cc4-c4cn(C)nc4C(F)(F)F)C3=O)c2c1 [Example 180, 5-(4-(7-((1H-Imidazol-1-yl)methyl)-5-(1-methyl-3-(trifluoromethyl)-1H-pyrazol-4-yl)-1-oxo-3,4-dihydroisoquinolin-2(1H)-yl)-6-methoxy-2-methylquinolin-8-yl)-1,3,4-oxadiazol-2(3-1)-one] |
| 131 | CCc1cc(C(=O)NC)c2nccc(N3CCc4c(cc(Cn5ccnc5)cc4-c4cccnc4C(F)(F)F)C3=O)c2c1 [Example 199, 4-(7-((1H-imidazol-1-yl)methyl)-1-oxo-5-(2-(trifluoromethyl)pyridin-3-yl)-3,4-dihydroisoquinolin-2(1H)-yl)-6-ethyl-N-methylquinoline-8-carboxamide] |
| < 20 | Cc1cc(N2CCN(C)CC2)c2cncc(N3CCc4c(cc(Cn5ccnc5)cc4-c4cn(C)nc4C(F)(F)F)C3=O)c2c1 [Example 100, 7-((1H-Imidazol-1-yl)methyl)-6′-methyl-5-(1-methyl-3-(trifluoromethyl)-1H-pyrazol-4-yl)-8′-(4-methylpiperazin-1-yl)-3,4-dihydro-1H-[2,4′-biisoquinolin]-1-one] |
| < 20 | CCc1cc(C(=O)NC2CN(C(=O)c3ccncc3)C2)c2nccc(N3CCc4c(cc(Cn5ccnc5)cc4-c4cn(C)nc4C(F)(F)F)C3=O)c2c1 [Example 225] |
| 46 | CCc1cc(C(=O)NCCO)c2nccc(N3CCc4c(cc(Cn5ccnc5)cc4-c4cn(C)nc4C(F)(F)F)C3=O)c2c1 [Example 168, 4-(7-((1H-Imidazol-1-yl)methyl)-5-(1-methyl-3-(trifluoromethyl)-1H-pyrazol-4-yl)-1-oxo-3,4-dihydroisoquinolin-2(1H)-yl)-6-ethyl-N-(2-hydroxyethyl)quinoline-8-carboxamide] |
| < 20 | COc1cc(N2CCN(C)CC2)c2nc(C)cc(N3CCc4c(cc(Cn5ccnc5)cc4-c4cn(C)nc4C(F)(F)F)C3=O)c2c1 [Example 102, 7-((1H-Imidazol-1-yl)methyl)-2-(6-methoxy-2-methyl-8-(4-methylpiperazin-1-yl)quinolin-4-yl)-5-(1-methyl-3-(trifluoromethyl)-1H-pyrazol-4-yl)-3,4-dihydroisoquinolin-1(2H)-one] |
| < 20 | COc1cc(C(=O)NC2CN(C(=O)c3cscn3)C2)c2nccc(N3CCc4c(cc(Cn5ccnc5)cc4-c4cn(C)nc4C(F)(F)F)C3=O)c2c1 [Example 227] |

More lines, now with the values behind:

| SMILES | GI50 [nM] |
| --- | --- |
| COc1cc(C2=CCN(C)CC2)c2nc(C)cc(N3CCc4c(cc(Cn5ccnc5)cc4-c4cn(C)nc4C(F)(F)F)C3=O)c2c1 [Example 154, 7-((1H-Imidazol-1-yl)methyl)-2(6-methoxy-2-methyl-8-(1-methyl-1,2,3,6-tetrahydropyridin-4-yl)quinolin-4-yl)-5-(1-methyl-3-(trifluoromethyl)-1H-pyrazol-4-yl)-3,4-dihydroisoquinolin-1(2H)-one] | 33 |
| COc1ccc2nc(C)cc(N3CCc4c(cc(Cn5ccnc5)cc4-c4cn(C)nc4C(F)(F)F)C3=O)c2c1 [Example 14, 7-((1H-Imidazol-1-yl)methyl)-2-(6-methoxy-2-methylquinolin-4-yl)-5-(1-methyl-3-(trifluoromethyl)-1H-pyrazol-4-yl)-3,4-dihydroisoquinolin-1(2H)-one] | 44 |
| COc1cc(N2CCN(C)C(=O)C2)c2nccc(N3CCc4c(cc(Cn5ccnc5)cc4-c4cn(C)nc4C(F)(F)F)C3=O)c2c1 [Example 33, 7-((1H-Imidazol-1-yl)methyl)-2-(6-methoxy-8-(4-methyl-3-oxopiperazin-1-yl)quinolin-4-yl)-5-(1-methyl-3-(trifluoromethyl)-1H-pyrazol-4-yl)-3,4-dihydroisoquinolin-1(2H)-one] | < 20 |
| CCc1cc(C(=O)NC)c2nc(C)cc(N3CCc4c(cc(Cn5ccnc5)cc4-c4cn(C)nc4C(F)(F)F)C3=O)c2c1 [Example 178] | < 20 |
| COc1cc(N2CCN(C(C)=O)CC2)c2nccc(N3CCc4c(cc(Cn5ccnc5)cc4-c4cn(C)nc4C(F)(F)F)C3=O)c2c1 [Example 32, 7-((1H-imidazol-1-yl)methyl)-2-(8-(4-acetylpiperazin-1-yl)-6-methoxyquinolin-4-yl)-5-(1-methyl-3-(trifluoromethyl)-1H-pyrazol-4-yl)-3,4-dihydroisoquinolin-1(2H)-one] | < 20 |
| CCc1cc(N2CCN(CCOC)CC2)c2nccc(N3CCc4c(cc(Cn5ccnc5)cc4-c4cn(C)nc4C(F)(F)F)C3=O)c2c1 [Example 210] | < 20 |
| COc1cc(N2CCOCC2)c2nc(C)cc(N3CCc4c(cc(Cn5ccnc5)cc4-c4cn(C)nc4C(F)(F)F)C3=O)c2c1 [Example 146, 7-((1H-Imidazol-1-yl)methyl)-2-(6-methoxy-2-methyl-8-morpholinoquinolin-4-yl)-5-(1-methyl-3-(trifluoromethyl)-1H-pyrazol-4-yl)-3,4-dihydroisoquinolin-1(2H)-one] | 26 |
| CCc1cc(C2=CCN(C)CC2)c2nc(C)cc(N3CCc4c(cc(Cn5ccnc5)cc4-c4cn(C)nc4C(F)(F)F)C3=O)c2c1 [Example 147, 7-((1H-imidazol-1-yl)methyl)-2-(6-ethyl-2-methyl-8-(1-methyl-1,2,3,6-tetrahydropyridin-4-yl)quinolin-4-yl)-5-(1-methyl-3-(trifluoromethyl)-1H-pyrazol-4-yl)-3,4-dihydroisoquinolin-1(2H)-one] | 43 |
| CCc1cc(N2CCOCC2)c2nc(C)cc(N3CCc4c(cc(Cn5ccnc5)cc4-c4cn(C)nc4C(F)(F)F)C3=O)c2c1 [Example 145, 7-((1H-Imidazol-1-yl)methyl)-2-(6-ethyl-2-methyl-8-morpholinoquinolin-4-yl)-5-(1-methyl-3-(trifluoromethyl)-1H-pyrazol-4-yl)-3,4-dihydroisoquinolin-1(2H)-one] | 36 |
| COc1cc(C(=O)N(C)C)c2nccc(N3CCc4c(cc(Cn5ccnc5)cc4-c4cn(C)nc4C(F)(F)F)C3=O)c2c1 [Example 45, 4-(7-((1H-Imidazol-1-yl)methyl)-5-(1-methyl-3-(trifluoromethyl)-1H-pyrazol-4-yl)-1-oxo-3,4-dihydroisoquinolin-2(1H)-yl)-6-methoxy-N,N-dimethylquinoline-8-carboxamide] | 326 |
| CCc1cc(N2CCN(C)C(=O)C2)c2nc(C)cc(N3CCc4c(cc(Cn5ccnc5)cc4-c4cn(C)nc4C(F)(F)F)C3=O)c2c1 [Example 111, 7-((1H-Imidazol-1-yl)methyl)-2-(6-ethyl-2-methyl-8-(4-methyl-3-oxopiperazin-1-yl)quinolin-4-yl)-5-(1-methyl-3-(trifluoromethyl)-1H-pyrazol-4-yl)-3,4-dihydroisoquinolin-1(2H)-one] | < 20 |
| COc1cc(C(=O)O)c2nccc(N3CCc4c(cc(Cn5ccnc5)cc4-c4cn(C)nc4C(F)(F)F)C3=O)c2c1 [Example 40, 4-(7-((1H-Imidazol-1-yl)methyl)-5-(1-methyl-3-(trifluoromethyl)-1H-pyrazol-4-yl)-1-oxo-3,4-dihydroisoquinolin-2(1H)-yl)-6-methoxyquinoline-8-carboxylic acid] | 291 |
| COc1cc(C(N)=O)c2nc(C)cc(N3CCc4c(cc(Cn5ccnc5)cc4-c4cn(C)nc4C(F)(F)F)C3=O)c2c1 [Example 198, 4-(7-((1H-Imidazol-1-yl)methyl)-5-(1-methyl-3-(trifluoromethyl)-1H-pyrazol-4-yl)-1-oxo-3,4-dihydroisoquinolin-2(1H)-yl)-6-methoxy-2-methylquinoline-8-carboxamide] | < 20 |
| CCc1cc(N2CCN(C(C)C)CC2)c2nc(C)cc(N3CCc4c(cc(Cn5ccnc5)cc4-c4cn(C)nc4C(F)(F)F)C3=O)c2c1 [Example 137, 7-((1H-Imidazol-1-yl)methyl)-2-(6-ethyl-8-(4-isopropylpiperazin-1-yl)-2-methylquinolin-4-yl)-5-(1-methyl-3-(trifluoromethyl)-1H-pyrazol-4-yl)-3,4-dihydroisoquinolin-1(2H)-one] | < 20 |
